According to patent US12624068B2, “Exon skipping by peptide nucleic acid derivatives” (OliPass Corporation, priority 2016, dated 2026):
{Fethoc} = N-terminal Fethoc cap; [C(1O2)] = modified PNA monomer acting as cytosine, C(pOq) type, 1O2; [A(5)] = modified PNA monomer acting as adenine, A(p) type, p=5; [A(6)] = modified PNA monomer acting as adenine, A(p) type, p=6; [G(5)] = modified PNA monomer acting as guanine, G(p) type, p=5; [G(6)] = modified PNA monomer acting as guanine, G(p) type, p=6; {NH2} = C-terminal amide

Experiments:
[1] = tested on: 10-mer complementary DNA; test: Tm between PNA derivatives and 10-mer complementary DNA (N- or C-terminal); type: binding; settings: uncorrected
Summary of the method: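 Tm read by UV at 260 nm for duplexes formed by annealing (90 °C for a minute, slow cooling to ambient) of equimolar 4 μM PNA and complementary 10-mer DNA targeting N- or C-terminal, in 10 mM sodium phosphate, 100 mM NaCl, pH 7.16.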

[2] = tested on: HIF-1α protein; test: HIF-1α western blot in HeLa cells; type: cell-based, human; settings: 24 hours
Description: “HIF-ASO 2” was evaluated for its ability to inhibit the expression of HIF-1α protein in HeLa cells as described below.
[Cell Culture & ASO Treatment] HeLa cells grown in 60 mm culture dish containing 5 mL culture medium were treated with “HIF-ASO 2” at 0 zM (negative control), 10 zM, 100 zM, 1 aM, or 10 aM.
[CoCl2 Treatment and Cell Lysis] 24 hours after the ASO treatment, the culture dishes except for the one without ASO treatment were treated with 200 μM CoCl2 for another 3 hours to upregulate the HIF-1α protein level by suppressing the activity of prolylhydroxylases (PHDs). Then the cells were washed 2× with 1 mL cold PBS, and subjected to lysis on ice with 200 μL 1×RIPA buffer (Cat. Number 9806, Cell Signaling Tech) supplemented with 1% SDS and 1× proteinase inhibitor cocktail (cOmplete Mini, Roche). Each lysate was collected in 1.5 mL e-tube, mixed with 100 μL 5× sample buffer, and boiled for 5 min at 100° C. The lysates were subjected to electrophoretic separation on an 8% SDS-PAGE gel, and transferred onto a 0.45 μm PVDF membrane. The membrane was probed with an anti-HIF-1α antibody (Cat. Number 610958, BD Biosciences) and an anti-β-actin antibody (Cat. Number sc4778, Santa Cruz).
FIG. 19B is a western blot data obtained with HeLa cells treated with “HIF-ASO 6” at 0 (negative control), 10, 100 or 1,000 zM for 24 hours. FIG. 19C provides the individual HIF-1α band intensities normalized against each individual β-actin band intensity by densitometry. The expression of HIF-1α protein decreased by ca 45-55% in the cells treated with “HIF-ASO 6”.
“HIF-ASO 1” was evaluated for its ability to inhibit the HIF-1α protein expression in HeLa cells according to the procedures described in “HIF-1α Example 2” unless noted otherwise. In this example, HeLa cells were treated with “HIF-ASO 1” at 0 zM (negative control), 100 zM, 300 zM, 1 aM, 3 aM, 10 aM, 30 aM, 100 aM or 300 aM for 72 hours prior to suppressing the activity of PHDs by an incubation with 200 μM CoCl2 for 3 hours. There were 4 culture dishes of the negative control, i.e., 0 zM “HIF-ASO 1”.
[ASO Treatment] […]

[3] = tested on: mdx mice; test: Grip test in mdx mice chronically administered; type: in vivo, mouse; settings: mdx mice, 10, 50 or 200 pmole/Kg subcutaneous chronic, Week 0 to 30
Description: “DMD-ASO 1” was evaluated by chronically administering to mdx mice for its ability to improve muscle function by grip test, to induce exon skipping, to upregulate the expression of the full-length dystrophin (i.e., dystrophin protein with the C-terminus encoded) by IHC, and to improve the muscular integrity by histopathology with H&E staining as described below.
[Grouping & ASO Treatment] Male mdx mice (7 weeks old) were randomly assigned to 4 groups of 0 (mdx negative control), 10, 50, and 200 pmole/Kg “DMD-ASO 1” based on individual grip strength scores by grip test. (N=12 per group) A satellite group of 12 male C57BL/6 mice (7 weeks old) was included in this study as the wild type negative control group for the full-length dystrophin expression level.
The 50 and 200 pmole/Kg group subcutaneously received “DMD-ASO 1” as dissolved in PBS, 2× per week until the final sacrifice in Week 43. In the meantime, the 10 pmole/Kg group subcutaneously received “DMD-ASO 1” initially 2× per week during Week 0 to 8, and 3× per week afterwards to increase the ASO exposure.
[Muscle Function by Grip Test] Muscle function was evaluated on a weekly basis by grip strength on a grip strength-meter (Cat. Number 47,200, Ugo Basile) according to the literature. [J. Appl. […] The grip strength scores by group were evaluated for statistical significance by student's t-test against the mdx negative control group.

Substance	Tm Value, 10-mer DNA against C-Terminal [1]	Tm Value, 10-mer DNA against N-Terminal [1]	also measured
Fethoc-AA(5)G-TG(5)T-A(5)CC(1O2)-TA(5)A-A(5)C-NH2 (AAGTGTACCTAAAC; splice-switching; all peptide nucleic acid (PNA), [A(5)] at 2, 7, 11, 13, [G(5)] at 5, [C(1O2)] at 9, 5' {Fethoc}, 3' {NH2}; peptide nucleic acid written N to C) [SCN-ASO 27]	69.0 °C	77.0 °C	
Fethoc-AC(1O2)T-TA(5)C-G(6)CA-A(5)AA(5)-AC(1O2)A-A(5)-NH2 (ACTTACGCAAAAACAA; all peptide nucleic acid (PNA), [C(1O2)] at 2, 14, [A(5)] at 5, 10, 12, 16, [G(6)] at 7, 5' {Fethoc}, 3' {NH2}; peptide nucleic acid written N to C) [SCN-ASO 7]	64.6 °C	65.0 °C	
Fethoc-GA(5)A-C(1O2)TT-A(5)TC-CTA(5)-C(1O2)T-NH2 (GAACTTATCCTACT; splice-switching; all peptide nucleic acid (PNA), [A(5)] at 2, 7, 12, [C(1O2)] at 4, 13, 5' {Fethoc}, 3' {NH2}; peptide nucleic acid backbone) [HIF-ASO 2]			decrease of HIF-1α protein expression (western blot, normalized against β-actin) ([2]; HeLa cells, 10 aM, then 200 μM CoCl2 3 hours): ~75%
Fethoc-A(6)GA-A(6)CT-TA(6)T-CC(1O2)T-A(6)CT-TA(6)-NH2 (AGAACTTATCCTACTTA; splice-switching; all peptide nucleic acid (PNA), [A(6)] at 1, 4, 8, 13, 17, [C(1O2)] at 11, 5' {Fethoc}, 3' {NH2}; peptide nucleic acid backbone) [HIF-ASO 6]			decrease of HIF-1α protein expression (western blot, normalized against β-actin) ([2]; HeLa cells, 10, 100 or 1,000 zM): 45-55%
Fethoc-A(5)GA-G(6)CC(1O2)-TCA-A(5)AA(5)-T-NH2 (antisense AGAGCCTCAAAAT; Fethoc N-cap, C-terminal amide, chemistry not fully specified) [DMD-ASO 1]			increase of grip strength compared to the mdx negative control group [3]: 30-50%
